Experimental data from ChEMBL document CHEMBL3397003, “Synthesis of dansyl-labeled probe of thiophene analogue of annonaceous acetogenins for visualization of cell distribution and growth inhibitory activity toward human cancer cell lines” (2015).

Key:
Format in all cases: functional
[1] = Growth inhibition of human SNB78 cells after 48 hrs by sulforhodamine B colorimetric assay; settings: SNB-78, 48 h, read-out: pGI50 (converted)
[2] = Growth inhibition of human MKN74 cells after 48 hrs by sulforhodamine B colorimetric assay; settings: MKN-74, 48 h
[3] = Growth inhibition of human OVCAR3 cells after 48 hrs by sulforhodamine B colorimetric assay; settings: OVCAR-3, 48 h, read-out: pGI50 (converted)
[4] = Growth inhibition of human MKN45 cells after 48 hrs by sulforhodamine B colorimetric assay; settings: MKN-45, 48 h, read-out: pGI50 (converted)
St-4 = test: Growth inhibition of human St-4 cells after 48 hrs by sulforhodamine B colorimetric assay; settings: St-4, 48 h, read-out: pGI50 (converted)
[5] = Growth inhibition of human MKN7 cells after 48 hrs by sulforhodamine B colorimetric assay; settings: MKN-7, 48 h
[6] = Growth inhibition of human OVCAR5 cells after 48 hrs by sulforhodamine B colorimetric assay; settings: OVCAR-5, 48 h, read-out: pGI50 (converted)
[7] = Growth inhibition of human OVCAR8 cells after 48 hrs by sulforhodamine B colorimetric assay; settings: OVCAR-8, 48 h, read-out: pGI50 (converted)
[8] = Growth inhibition of human OVCAR4 cells after 48 hrs by sulforhodamine B colorimetric assay; settings: OVCAR-4, 48 h, read-out: pGI50 (converted)
[9] = Growth inhibition of human MKN28 cells after 48 hrs by sulforhodamine B colorimetric assay; settings: MKN-28, 48 h
NCI-H522 = test: Growth inhibition of human NCI-H522 cells after 48 hrs by sulforhodamine B colorimetric assay; settings: NCI-H522, 48 h
[10] = Growth inhibition of human SF539 cells after 48 hrs by sulforhodamine B colorimetric assay; settings: SF-539, 48 h, read-out: pGI50 (converted)
NCI-H226 = test: Growth inhibition of human NCI-H226 cells after 48 hrs by sulforhodamine B colorimetric assay; settings: NCI-H226, 48 h, read-out: pGI50 (converted)
[11] = Growth inhibition of human LOXIMVI cells after 48 hrs by sulforhodamine B colorimetric assay; settings: LOX IMVI
NCI-H460 = test: Growth inhibition of human NCI-H460 cells after 48 hrs by sulforhodamine B colorimetric assay; settings: NCI-H460, 48 h, read-out: pGI50 (converted)
SF-268 = test: Growth inhibition of human SF268 cells after 48 hrs by sulforhodamine B colorimetric assay; settings: SF-268, 48 h, read-out: pGI50 (converted)
NCI-H23 = test: Growth inhibition of human NCI-H23 cells after 48 hrs by sulforhodamine B colorimetric assay; settings: NCI-H23, 48 h
SK-OV-3 = test: Growth inhibition of human SKOV3 cells after 48 hrs by sulforhodamine B colorimetric assay; settings: SK-OV-3, 48 h, read-out: pGI50 (converted)
HT-29 = test: Growth inhibition of human HT-29 cells after 48 hrs by sulforhodamine B colorimetric assay; settings: HT-29, 48 h, read-out: pGI50 (converted)
ACHN = test: Growth inhibition of human ACHN cells after 48 hrs by sulforhodamine B colorimetric assay; settings: read-out: pGI50 (converted)
[12] = Growth inhibition of human BSY1 cells after 48 hrs by sulforhodamine B colorimetric assay; settings: BSY-1, 48 h
[13] = Growth inhibition of human MKN1 cells after 48 hrs by sulforhodamine B colorimetric assay; settings: MKN-1, 48 h, read-out: pGI50 (converted)
DU-145 = test: Growth inhibition of human DU145 cells after 48 hrs by sulforhodamine B colorimetric assay; settings: DU-145, 48 h, read-out: pGI50 (converted)
U-251 = test: Growth inhibition of human U251 cells after 48 hrs by sulforhodamine B colorimetric assay; settings: U-251, 48 h, read-out: pGI50 (converted)
[14] = Growth inhibition of human HCC2998 cells after 48 hrs by sulforhodamine B colorimetric assay; settings: HCC 2998, 48 h, read-out: pGI50 (converted)
SNB-75 = test: Growth inhibition of human SNB75 cells after 48 hrs by sulforhodamine B colorimetric assay; settings: SNB-75, 48 h, read-out: pGI50 (converted)
[15] = Growth inhibition of human DMS273 cells after 48 hrs by sulforhodamine B colorimetric assay; settings: DMS-273, 48 h
[16] = Growth inhibition of human HBC4 cells after 48 hrs by sulforhodamine B colorimetric assay; settings: HBC4, 48 h, read-out: pGI50 (converted)
[17] = Growth inhibition of human HCT15 cells after 48 hrs by sulforhodamine B colorimetric assay; settings: HCT-15, 48 h, read-out: pGI50 (converted)
[18] = Growth inhibition of human DMS114 cells after 48 hrs by sulforhodamine B colorimetric assay; settings: DMS-114, 48 h
MCF7 = test: Growth inhibition of human MCF7 cells after 48 hrs by sulforhodamine B colorimetric assay; settings: MCF7, 48 h
MDA-MB-231 = test: Growth inhibition of human MDA-MB-231 cells after 48 hrs by sulforhodamine B colorimetric assay; settings: MDA-MB-231, 48 h, read-out: pGI50 (converted)
[19] = Growth inhibition of human RXF631L cells after 48 hrs by sulforhodamine B colorimetric assay; settings: RXF 631, 48 h, read-out: pGI50 (converted)
A549 = test: Growth inhibition of human A549 cells after 48 hrs by sulforhodamine B colorimetric assay; settings: A549, 48 h, read-out: pGI50 (converted)
KM12 = test: Growth inhibition of human KM12 cells after 48 hrs by sulforhodamine B colorimetric assay; settings: KM12, 48 h, read-out: pGI50 (converted)
[20] = Growth inhibition of human PC3 cells after 48 hrs by sulforhodamine B colorimetric assay; settings: PC-3, 48 h, read-out: pGI50 (converted)
[21] = Growth inhibition of human SF295 cells after 48 hrs by sulforhodamine B colorimetric assay; settings: SF-295, 48 h
[22] = Growth inhibition of human HBC5 cells after 48 hrs by sulforhodamine B colorimetric assay; settings: HBC5, 48 h
[23] = Growth inhibition of human HCT116 cells after 48 hrs by sulforhodamine B colorimetric assay; settings: HCT-116, 48 h

Compound: CN(C)c1cccc2c(S(=O)(=O)NCCCCCCCCC[C@@H](O)[C@H]3CC[C@H]([C@H](O)CCCCCCCCCCNC(=O)c4ccsc4)O3)cccc12
- GI50 [1]: > 100 µM
- GI50 [2]: 33.1 µM
- GI50 [3]: > 100 µM
- GI50 [4]: > 100 µM
- GI50 (St-4): > 100 µM
- GI50 [5]: 0.0363 µM
- GI50 [6]: > 100 µM
- GI50 [7]: > 100 µM
- GI50 [8]: > 100 µM
- GI50 [9]: 0.0363 µM
- GI50 (NCI-H522): 25.7 µM
- GI50 [10]: > 100 µM
- GI50 (NCI-H226): > 100 µM
- GI50 [11]: 0.676 µM
- GI50 (NCI-H460): > 100 µM
- GI50 (SF-268): > 100 µM
- GI50 (NCI-H23): 36.3 µM
- GI50 (SK-OV-3): > 100 µM
- GI50 (HT-29): > 100 µM
- GI50 (ACHN): > 100 µM
- GI50 [12]: 1.2 µM
- GI50 [13]: > 100 µM
- GI50 (DU-145): > 100 µM
- GI50 (U-251): > 100 µM
- GI50 [14]: > 100 µM
- GI50 (SNB-75): > 100 µM
- GI50 [15]: > 100 µM
- GI50 [16]: > 100 µM
- GI50 [17]: > 100 µM
- GI50 [18]: 0.0302 µM
- GI50 (MCF7): 2.88 µM
- GI50 (MDA-MB-231): > 100 µM
- GI50 [19]: > 100 µM
- GI50 (A549): > 100 µM
- GI50 (KM12): > 100 µM
- GI50 [20]: > 100 µM
- GI50 [21]: 12.9 µM
- GI50 [22]: 0.363 µM
- GI50 [23]: 0.302 µM

Compound: CCCCCCCCCCCC[C@@H](O)[C@H]1CC[C@H]([C@H](O)CCCCCCCCCCNC(=O)c2ccsc2)O1
- GI50 [1]: > 100 µM
- GI50 (NCI-H522): 1 µM
- GI50 [10]: > 100 µM
- GI50 (SF-268): > 100 µM
- GI50 (NCI-H23): 0.2 µM
- GI50 (SK-OV-3): > 100 µM
- GI50 (U-251): > 100 µM
- GI50 [15]: 2 µM
- GI50 [16]: > 100 µM
- GI50 (MCF7): 2 µM
- GI50 [19]: > 100 µM
- GI50 (A549): > 100 µM
- GI50 [21]: 1 µM
